According to patent publication US20080187492A1, “Drosophila Models For Diseases Affecting Learning and Memory” (priority 2004, published 2008):

Columns and labels:
[1] = tested on: FS (dFMR1-3+frame shifted rescue fragment) flies; test: Conditioned courtship: short-term memory at 60 minutes, virgin female target, FS flies; assay type: in vivo, Drosophila melanogaster; details: for short-term memory: concentration not given; for short term memory: LY341495 (400 nM), MPEP (20 μg/ml); for short-term memory at 60 minutes after training: adulthood alone or both
Description: (§1) Short-term memory. The model was further extended to encompass short-term memory at 60 minutes after training. After the one hour training session with a previously mated female, the female is removed and the male is placed in a holding chamber for 60 minutes, then subsequently placed in a testing chamber with a virgin female target to assess short-term memory (FIG. 4C). […] CT-CT FS flies court just as vigorously at 60 minutes after training as naive CT-CT FS flies. […] The FS groups that were treated with MPEP in development alone, adulthood alone or in both development and adulthood display experience dependent reduction of courtship activity at 60 minutes after training when compared to group matched naives M-M FS, p<0.0001, CT-M FS, p<0.0001 and M-CT FS, p<0.0001. […] Additionally, flies were tested for ability to discriminate between virgin and previously mated females (FIG. 4D).
(§2) In order to examine short-term memory at 60 minutes after training, after the one hour training session with a previously mated female, the female is removed and the male is placed in a holding chamber for 60 minutes, then subsequently placed in a testing chamber with a virgin female (FIG. 9B). […] CT-CT FS flies court just as vigorously at 60 minutes after training as naive CT-CT FS flies. […] The FS groups that were treated with MPEP in development alone, adulthood alone or in both development and adulthood display experience dependent reduction of courtship activity at 60 minutes after training when compared to group matched naives M-M FS.

[2] = tested on: Rescue (dFMR1-3+wild type rescue fragment) flies; test: Conditioned courtship: short-term memory at 60 minutes, virgin female target, Rescue flies; assay type: in vivo, Drosophila melanogaster; details: for short term memory: MPEP (20 μg/ml), NaCl (5 and 50 mM), LY341495 (400 nM); for short-term memory at 60 minutes after training: adulthood or both
Description: as §1, §2

[3] = tested on: wild type human and Drosophila tau expressing flies; test: Short term memory in tau over expressing Drosophila Alzheimer's model; assay type: in vivo; details: for age dependent short term memory deficit: at 30 and 40 days
Excerpt: Two Drosophila Alzheimer's models are particularly useful. One uses over expression of tau (either human wild type or Drosophila wild type with a myc tag) driven in the mushroom bodies. Flies overexpressing tau have normal memory at 5 days of age (young adults) but an age dependent impairment of short-term and long term memory by 26 days of age.

[4] = tested on: FS (dFMR1-3+frame shifted rescue fragment) flies; test: Conditioned courtship: learning during training, FS flies; assay type: in vivo, Drosophila melanogaster; details: MPEP 200 μg/ml in development, adulthood or both
Excerpt: The role of dFMR1 in learning during training and immediate recall. The flies used were w1118 (the background stock from which the mutation was derived), dFMR1-3 (the mutation lacking dFMR1 expression), Rescue (dFMR1-3+wild type rescue fragment) and FS (frame shift, dFMR1-3+frame shifted rescue fragment) all from Dockendorff et al, 2002. To assess learning during training male flies are placed in a training chamber with a previously mated female for one hour. The amount of time the male spent courting in the initial ten-minute interval was compared to the amount of time the male spent courting the female target in the final ten-minute interval (FIG. 1). […] It is important to note that the level of courtship behavior towards the previously mated female is similar between the two mutant groups and the w1118 and Rescue groups. […] This is important to note, because without actively courting, the male fly cannot be trained (Tompkins et al. 1982; 1983).
Learning during training. In order to assess learning during training, the male flies were placed in a training chamber with a previously mated female for one hour. The amount of time the male spent courting in the first ten-minute interval was compared to the amount of time the male spent courting the female target in the last ten-minute interval (FIG. 4A).
Behavioral Training and Testing. […]

[5] = tested on: FS (dFMR1-3+frame shifted rescue fragment) flies; test: Discrimination between virgin and previously mated females, FS flies; assay type: in vivo, Drosophila melanogaster; details: 20-day-old; MPEP 200 μg/ml in development and adulthood (M-M)
Description: as §1
(§3) Flies were also tested for ability to discriminate between virgin and previously mated females in FIG. 9C.

[6] = tested on: Rescue (dFMR1-3+wild type rescue fragment) flies; test: Discrimination between virgin and previously mated females, Rescue flies; assay type: in vivo, Drosophila melanogaster
Description: as §1, §3

[7] = tested on: flies heterozygous for the Drosophila presenilin gene; test: Learning during training in Drosophila model of Alzheimer's disease with reduced presenilin; assay type: in vivo; set-up: age dependent impairment in learning during training: dose or concentration left out as unconfirmed
Excerpt: FIG. 10 is a graph showing the effect of MPEP on learning during training in a Drosophila model of Alzheimer's disease expressing reduced amounts of presenilin. All flies have reduced presenilin level. Black bars are 5 day old flies raised on kept on control food (N=18) which display learning during training (p<0.05). […] This impairment is prevented by treatment with MPEP.
Using methods similar to those described in Examples 1 and 2, we evaluated the effect of MPEP on various aspects of learning and memory in a Drosophila model of Alzheimer's disease with reduced expression of presenilin.
Flies in all three groups are heterozygous for the Drosophila presenilin gene. Each group has one wild type presenilin gene and one null presenilin gene, resulting from a deletion at the presenilin locus or a mutation at the presenilin locus. Learning during training was assayed in flies kept on control food until tested at five days of age, kept on control food until tested at 30 days of age or kept on control food for the first five days after eclosion then switched to food containing 200 μg/ml of MPEP until being moved back to control food the day before being tested at 30 days of age. […] This age-dependent deficit in learning during training is apparent in ten mutant presenilin Drosophila lines evaluated. In flies treated with MPEP, learning during training was restored at 30 days of age (p<0.05).

[8] = tested on: Rescue (dFMR1-3+wild type rescue fragment) flies; test: Naive courtship behavior (courtship index toward virgin female), Rescue flies; assay type: in vivo, Drosophila melanogaster; details: 20-day-old

With `CC(N)(C(=O)O)c1ccc(-c2nnn[nH]2)cc1` (racemic) [MTPG, (RS)-α-methyl-4-tetrazolylphenylglycine] the short-term memory ([1]; 20-day-old) was “rescue short-term memory”.
For `N[C@](CC1c2ccccc2Oc2ccccc21)(C(=O)O)[C@H]1C[C@@H]1C(=O)O` [LY341495, (2S)-2-amino-2-[(1S,2S)-2-carboxycycloprop-1-yl]-3-(xanth-9-yl) propionic acid], the short-term memory ([1]; 20-day-old) was “rescue short-term memory”, the short term memory ([1]; 5 day old) was “restored short-term memory” and the short term memory ([2]; 5 day old) was “did not affect short term memory”. For the same compound, the “age dependent short term memory deficit” value [3] was “can rescue the age dependent short term memory deficit” and the short term memory ([3]; treatment from day 30 to day 39, at 40 days of age) was “can restore short term memory”.
`Cc1cccc(C#Cc2ccccc2)n1` [MPEP, 2-methyl-6-(phenylethynyl)pyridine] was tested, and the learning during training ([4]; 20-day-old) was “able to restore learning during training”, the learning during training ([4]; 5 day old) was “does not adversely affect learning during training” and the “short-term memory at 60 minutes after training” value (shortened to “short-term memory at 60 minutes”) ([1]; 20-day-old, MPEP in development alone) was “short-term memory is also rescued”. The short term memory ([1]; 5 day old) was “restored short-term memory”, the “short-term memory at 60 minutes” value ([1]; 5 day old, MPEP 200 μg/ml in development alone, p<0.0001) was “short-term memory is also rescued” and the “short-term memory at 60 minutes” value ([2]; 20-day-old, MPEP in development) was “does not adversely affect short-term memory”. For the same compound, the “short-term memory at 60 minutes” value ([2]; 5 day old, MPEP 200 μg/ml in development) was “does not adversely affect short-term memory”, the short term memory ([2]; 5 day old) was “did not affect short term memory” and the “time courting virgin female compared to previously mated female (discrimination)” value [5] was “spent significantly more time courting virgin female targets”. The “time courting virgin female compared to previously mated female (discrimination)” value ([6]; 20-day-old, MPEP 200 μg/ml in development and adulthood (M-M)) was “spent significantly more time courting virgin female targets”, the “ability to discriminate between virgin and previously mated females” value ([6]; 5 day old, MPEP 200 μg/ml in adulthood only (CT-M)) was “spend similar amounts of time courting previously mated female targets and virgin female targets” and the “age dependent impairment in learning during training” value ([7]; 30 day old, food supplemented MPEP from day 5) was “prevented”. The learning during training ([7]; 30 days of age, food containing 200 μg/ml of MPEP from day 5, p<0.05) was “restored”, the “age dependent short term memory deficit” value [3] was “can rescue the age dependent short term memory deficit” and the naive courtship activity ([8]; MPEP (86.6 μM) in adulthood only (CT-M)) was “depressed relative to CT-CT Rescue flies”. The naive courtship activity ([8]; MPEP (86.6 μM) in development then M or CT food as adults) was “courted as vigorously as CT-CT Rescues flies”.
